Results from ChEMBL document CHEMBL1201862, “PubChem BioAssay data set” (2004).
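Results reflect a 48-hour exposure of cells in 96-well plates to compound at five concentrations. GI50 marks 50% less growth.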 Active and inactive are the calls of the source. No stated cut-off is given here; in the data, active = GI50 up to about 1.1 µM and inactive = higher.

What was measured:
Experiment in all cases: NCI anticancer screen, dose series, 48 h
[1] = system: HCT-116
[2] = system: MDA-MB-231
[3] = system: T47D
[4] = system: TK-10
[5] = system: SNB-75
[6] = system: A549
[7] = system: HT-29
[8] = system: OVCAR-5
[9] = system: NCI-H226
[10] = system: CAKI-1
[11] = system: OVCAR-8
[12] = system: EKVX
[13] = system: SR
[14] = system: IGROV-1
[15] = system: SW-620
[16] = system: RXF 393
[17] = system: SNB-19
[18] = system: ACHN
[19] = system: 786-0

Measured: GI50

O=C1CC2(CCC(O)(c3cccs3)C(C(=O)c3cccs3)C2)C(=O)c2ccccc2N1 (configuration not stated)
inactive: [1] 53 µM | [2] > 100 µM | [3] 18.2 µM | [4] > 100 µM | [5] 37.7 µM | [6] 95.7 µM | [7] 40.6 µM | [8] > 100 µM | [9] > 100 µM | [10] > 100 µM | [11] > 100 µM | [12] > 100 µM | [13] > 100 µM | [14] > 100 µM | [15] > 100 µM | [16] > 100 µM

Cc1c(/N=N/c2ccc([N+](=O)[O-])cc2)nc2scc(-c3ccccc3)n12
inactive: [1] > 100 µM | [2] > 100 µM | [17] > 100 µM | [3] > 70.8 µM | [4] > 74.6 µM | [5] 44.5 µM | [6] > 100 µM | [7] > 88.5 µM | [18] 63.4 µM | [8] > 66.7 µM | [9] > 100 µM | [10] > 73.3 µM | [11] 71.6 µM | [12] > 100 µM | [13] 19.5 µM | [14] > 84.1 µM | [19] > 100 µM | [15] > 80.2 µM | [16] 99.5 µM

C/C(=C\CNc1ncnc2c1ncn2CCC(=O)OC(C)(C)C)CO
inactive: [1] > 100 µM | [2] > 100 µM | [17] > 100 µM | [3] > 100 µM | [4] > 100 µM | [5] > 100 µM | [6] > 100 µM | [7] > 100 µM | [18] > 100 µM | [8] > 100 µM | [9] > 100 µM | [10] > 100 µM | [11] > 100 µM | [12] > 100 µM | [13] > 100 µM | [14] > 100 µM | [19] > 100 µM | [15] > 100 µM | [16] > 100 µM

CCCCCCCCCCCCCCCCCCNc1ccn(C2OC(COP(=O)(O)OCC(COP(=O)(O)OCC3OC(n4cc(C)c(=O)[nH]c4=O)CC3N=[N+]=[N-])OCCCCCCCCCCCCCCCCCC)C(O)C2O)c(=O)n1 (configuration not stated)
inactive: [1] 56.8 µM | [2] 44.3 µM | [17] 19.4 µM | [3] 46.7 µM | [4] > 100 µM | [5] 49 µM | [6] 51.6 µM | [7] 28.5 µM | [18] > 100 µM | [8] 76.9 µM | [9] > 100 µM | [10] > 100 µM | [11] 60.5 µM | [12] > 100 µM | [13] > 100 µM | [14] 52.2 µM | [19] 54.1 µM | [15] > 100 µM | [16] 51.6 µM

CC1Cc2c(cc(N)nc2Br)NC1=O (configuration not stated)
inactive: [1] 64.6 µM | [2] > 100 µM | [17] > 100 µM | [3] 42.7 µM | [4] > 100 µM | [5] 74.8 µM | [6] 63.7 µM | [7] > 100 µM | [18] 64.3 µM | [8] > 100 µM | [9] > 100 µM | [10] > 100 µM | [11] > 100 µM | [12] 11 µM | [13] 84.1 µM | [14] > 100 µM | [19] > 100 µM | [15] > 100 µM | [16] 81.8 µM

Cc1cc2ccc(OC(=O)c3ccc(NC(=N)N)cc3)cc2oc1=O
inactive: [1] 24.1 µM | [2] 22 µM | [17] 22.2 µM | [3] 26.8 µM | [4] 22.5 µM | [5] 23.3 µM | [6] 36.2 µM | [7] 26.6 µM | [18] > 100 µM | [8] 34.3 µM | [9] 26.4 µM | [10] 43.5 µM | [11] 33.3 µM | [12] 30.5 µM | [13] 22.5 µM | [14] 55 µM | [19] 25.1 µM | [15] 24.7 µM | [16] 33.3 µM

Cn1c(=O)cc(/N=N\c2ccc(Cl)c(Cl)c2)[nH]c1=O
inactive: [1] 28.4 µM | [2] 24.8 µM | [17] 63.8 µM | [3] 29.7 µM | [4] 23.8 µM | [5] 49.2 µM | [6] > 100 µM | [7] 19.9 µM | [18] 21.2 µM | [8] 24.8 µM | [9] > 100 µM | [10] 13.4 µM | [11] 23.4 µM | [12] 24.5 µM | [13] 25.5 µM | [14] 33 µM | [19] 17.6 µM | [15] 24.3 µM | [16] 23.3 µM

CC(C)C(C/C=C1/CC(CO)(COC(=O)c2ccccc2)OC1=O)C(C)C (configuration not stated)
inactive: [1] 16 µM | [2] 15.7 µM | [17] 16.7 µM | [3] 15.6 µM | [4] 16.5 µM | [5] 7.5 µM | [6] 12.4 µM | [7] 18.7 µM | [18] 13.9 µM | [8] 16.9 µM | [9] 16 µM | [10] 14.6 µM | [11] 22.4 µM | [12] 19.2 µM | [13] 30.6 µM | [14] 20.2 µM | [19] 11 µM | [15] 16.4 µM | [16] 16.7 µM

COc1cc([C@@H]2c3cc(O)c(OC)cc3C=C(C(N)=O)[C@H]2C(N)=O)ccc1O
inactive: [1] > 100 µM | [2] > 100 µM | [17] > 100 µM | [3] > 100 µM | [5] > 100 µM | [6] > 100 µM | [7] > 100 µM | [18] > 100 µM | [8] > 100 µM | [9] > 100 µM | [10] > 100 µM | [11] > 100 µM | [12] > 100 µM | [13] > 100 µM | [14] > 100 µM | [19] > 100 µM | [15] > 100 µM | [16] > 100 µM

Cc1ccc(S(=O)(=O)Nc2nnc(S(N)(=O)=O)s2)cc1
inactive: [1] > 100 µM | [2] > 100 µM | [17] > 100 µM | [3] > 100 µM | [4] > 100 µM | [6] > 100 µM | [18] > 100 µM | [8] > 100 µM | [9] > 100 µM | [10] > 100 µM | [11] > 100 µM | [12] > 100 µM | [13] > 100 µM | [19] > 100 µM | [15] > 100 µM | [16] > 100 µM

Cc1ccc(O)c(-c2cc(-c3cccc(Br)c3)c(C#N)c(N)n2)c1
inactive: [1] 20 µM | [2] 20.4 µM | [17] 19.3 µM | [3] 17.7 µM | [4] 18.2 µM | [6] 27.6 µM | [7] 23.9 µM | [18] 18.2 µM | [8] 41.5 µM | [9] 17.5 µM | [10] 21.8 µM | [11] 32.3 µM | [12] 14.8 µM | [13] 19.3 µM | [14] 11.7 µM | [19] 34.4 µM | [15] 23.8 µM | [16] 20.8 µM

N/N=C(\C(=O)Nc1ccc(Cl)cc1Cl)C(c1cnc2ccccc2n1)[N+](=O)[O-] (configuration not stated)
inactive: [1] 26.7 µM | [2] > 100 µM | [3] > 100 µM | [4] > 100 µM | [5] > 100 µM | [6] > 100 µM | [7] > 100 µM | [18] 71.1 µM | [8] > 100 µM | [9] > 100 µM | [10] > 100 µM | [11] > 100 µM | [12] > 100 µM | [13] > 10 µM | [14] 8.47 µM | [19] > 100 µM | [15] > 100 µM | [16] > 100 µM

CCOC(=O)NC(C(F)(F)F)(C(F)(F)F)P(=O)(OCC(C)C)OCC(C)C
inactive: [1] 2.55 µM | [2] 15.1 µM | [17] 28.8 µM | [3] 23.8 µM | [4] 11.9 µM | [5] 23.6 µM | [6] 22.3 µM | [7] 11.5 µM | [18] 8.34 µM | [8] 18.6 µM | [9] 13.9 µM | [10] 27.9 µM | [11] 5.41 µM | [12] 21.6 µM | [13] 9.77 µM | [14] 10.2 µM | [15] 3.82 µM | [16] 11.3 µM

CSC(=NC1=NC(C(F)(F)F)(C(F)(F)F)N=C(c2ccccc2)O1)SC
inactive: [1] 4.01 µM | [2] 20.3 µM | [17] 5.22 µM | [3] 3.1 µM | [4] 7.93 µM | [5] 3.15 µM | [6] 10.5 µM | [7] 16.4 µM | [18] 3.53 µM | [8] 26.4 µM | [9] 26.9 µM | [10] 4.49 µM | [11] 5.98 µM | [12] 9.27 µM | [13] 10.7 µM | [19] 16.4 µM | [15] 9.38 µM | [16] 5.77 µM

O=C(C[C@H](NC(=O)OCc1ccccc1)C(=O)NC1Cc2ccccc2OC1=O)OCc1ccccc1 (some centres not stated)
inactive: [1] 29.2 µM | [2] 26.7 µM | [17] > 100 µM | [3] 94.8 µM | [5] > 100 µM | [8] > 100 µM | [9] > 100 µM | [10] 70 µM | [11] > 100 µM | [13] > 100 µM | [14] > 100 µM | [16] > 100 µM
